Results published in article PMC10743086, “Immunofluorescence-Based Assay for High-Throughput Analysis of Multidrug Resistance Markers in Non-Small Cell Lung Carcinoma Patient-Derived Cells” (Diagnostics, 2023).

Experiments:
Type in all cases: cell-based, human
NCI-H460 cells = experiment: Cytotoxicity by immunofluorescence cell scoring (cell counts), NSCLC cell line; conditions: Homo sapiens, NCI-H460, 24 h, 24 h treatment
Method: (§1) Vinorelbine and pemetrexed were purchased from Selleckchem (Houston, TX, USA). Carboplatin, cisplatin, docetaxel, etoposide, gemcitabine, gefitinib, and paclitaxel were purchased from Sigma-Aldrich Chemie GmbH (Taufkirchen, Germany). The cisplatin, carboplatin, and gemcitabine were dissolved in sterile water, while the etoposide, docetaxel, vinorelbine, paclitaxel, gefitinib, and pemetrexed were dissolved in DMSO and stored at −20 °C. Before treatment, all the stock solutions were freshly diluted in sterile water.
(§2) The compounds were administered 48 h after seeding. The treatment lasted 24 h.
(§3) The immunofluorescence assay for the quantification of MDR markers was optimized to distinguish cancer cells from stromal cells using a cytokeratin 8/18 (CK8/18) antibody cocktail. The cells were fixed with 4% paraformaldehyde for 20 min at RT and washed three times with PBS using the Wellwash Versa microplate washer (Thermo Fisher Scientific, Waltham, MA, USA). The cells were then blocked with 2% bovine serum albumin (BSA) in PBS for 1 h at RT. […] Co-immunostaining with antibodies against MDR markers was performed to detect the presence of ABCB1, ABCC1, and ABCG2 in both the cancer and stromal cells. […] The secondary antibodies were incubated with the cells at RT for 2 h in the dark. […] Finally, the cells were washed three times with PBS and stored at 4 °C in the dark before imaging.
(§4) The fluorescently labeled cells were imaged using the ImageXpress Pico Automated Cell Imaging System (Molecular Devices, San Jose, CA, USA) with a 4x objective after determining the appropriate exposure time for each illumination filter. Analysis of the obtained images was performed using CellReporterXpress software v. 2.8.2.669 (Molecular Devices). The cytotoxicity of the compounds was determined using the Cell Scoring Analysis Protocol. […] Expression of MDR markers was determined using the Multi-Wavelength Cell Scoring Analysis Protocol.

MRC-5 cells = experiment: Cytotoxicity by immunofluorescence cell scoring (cell counts), normal fibroblasts; conditions: Homo sapiens, 24 h treatment
Method: as §1, §2, §3, §4

[1] = system: ABCB1 expression in MRC-5 cells; experiment: Immunofluorescence assay of MDR marker ABCB1 expression; conditions: five concentrations, 24 h
Method: as §1, §2, §3, §4

[2] = system: ABCB1 expression in NCI-H460 cells; experiment: as above; conditions: five concentrations, 24 h
Method: as §1, §2, §3, §4

[3] = system: ABCB1 expression in NCI-H460/R cells; experiment: as above; conditions: five concentrations, 24 h
Method: as §1, §2, §3, §4

[4] = system: Cancer cells (CK8/18+) of patient-derived NSCLC cultures; experiment: Cytotoxicity in patient-derived NSCLC cultures, cancer cells; conditions: Homo sapiens, 168 h, 7 days treatment
Method: (§5) Tissue samples were collected during surgery, and the NSCLC diagnosis, histological grade, stage, necrosis, and lymph node invasion status were determined by histopathological analysis. […] The surgical specimens were placed in a sterile tube containing antibiotic-antimycotic solution (Sigma-Aldrich Chemie GmbH, Taufkirchen, Germany) and immediately transported to the research laboratory for further processing.
(§6) Upon arrival, the tissue was manually chopped with a surgical blade in a Petri dish under sterile conditions. The samples were cut into 3–5 mm pieces and further dissociated using the Tumor Dissociation Kit (Miltenyi Biotec, Bergisch Gladbach, Germany). The Tumor Dissociation Kit was used to dissociate the cells from the tumor tissue according to the manufacturer’s instructions. The samples were incubated in a 37 °C orbital shaker (KS 4000 ic control, IKA, Königswinter, Germany) at 300 rpm for 90 min. After incubation, the dissociated tissue was placed in DMEM/Ham’s F12 (1:3 ratio) growth medium supplemented with 5% fetal bovine serum (Corning, NY, USA), antibiotic-antimycotic solution, 4 µg/mL hydrocortisone (Sigma-Aldrich Chemie GmbH, Taufkirchen, Germany), 1 µg/mL insulin (Sigma-Aldrich Chemie GmbH, Taufkirchen, Germany), 10 ng/mL epidermal growth factor (BioLegend, San Diego, CA, USA), and 24 µg/mL adenine (Sigma-Aldrich Chemie GmbH, Taufkirchen, Germany). The DMEM and Ham’s F12 growth media were purchased from Sigma-Aldrich Chemie GmbH (Taufkirchen, Germany).
(§7) The dissociated tissue was cultured in T-25 cell culture flasks until cell attachment was observed before the medium was replaced. If no cell attachment was achieved within 7 days, the sample was discarded. Successful patient-derived cultures were maintained at 37 °C in a humidified atmosphere with 5% CO2 and grown to confluence before undergoing further experiments. […] Partial trypsinization was performed by detaching the fibroblast-like cells with 1 mL of 0.05% trypsin for 1 min at 37 °C, followed by 2 min at room temperature (RT).
as §1
(§8) The primary cells were seeded in black, clear bottom 384-well cell culture microplates (Thermo Fisher Scientific, Waltham, MA, USA) in 50 µL of cell growth medium at a density of 1000 cells per well. The compounds were administered 72 h after seeding. The treatment lasted 7 days.
as §3

[5] = system: Non-cancer cells (CK8/18-) of patient-derived NSCLC cultures; experiment: Cytotoxicity in patient-derived NSCLC cultures, non-cancer cells; conditions: Homo sapiens, 168 h, 7 days treatment
Method: as §5, §6, §7, §1, §8, §3

[6] = system: ABCB1 expression in cancer cells (CK8/18+); experiment: Immunofluorescence assay of ABCB1 expression in patient-derived NSCLC cultures; conditions: 7 days
Method: as §5, §6, §7, §1, §8, §3

[7] = system: ABCC1 expression in cancer cells (CK8/18+); experiment: Immunofluorescence assay of ABCC1 expression in patient-derived NSCLC cultures; conditions: 7 days
Method: as §5, §6, §7, §1, §8, §3

[8] = system: ABCG2 expression in cancer cells (CK8/18+); experiment: Immunofluorescence assay of ABCG2 expression in patient-derived NSCLC cultures; conditions: 7 days
Method: as §5, §6, §7, §1, §8, §3

[9] = NCI-H460 (co-culture with MRC-5)
[10] = culture TR58, cancer cells (CK8/18+)
[11] = culture TR64, cancer cells (CK8/18+)
[12] = culture TR65, cancer cells (CK8/18+)
[13] = culture TR84, cancer cells (CK8/18+)
[14] = culture TR87, cancer cells (CK8/18+)

`Nc1nc2[nH]cc(CCc3ccc(C(=O)N[C@@H](CCC(=O)O)C(=O)O)cc3)c2c(=O)[nH]1` [Pemetrexed, pemetrexed] gave an IC50 (NCI-H460 cells; [9]) greater than 300 µM, an IC50 (NCI-H460 cells; NCI-H460 monoculture) greater than 300 µM and an IC50 (MRC-5 cells; MRC5, 24 h, MRC-5 (co-culture with NCI-H460)) greater than 300 µM. The IC50 (MRC-5 cells; MRC5, 24 h, MRC-5 monoculture) was greater than 300 µM, the IC50 (MRC-5 cells; MRC5, MRC-5 (co-culture with NCI-H460/R)) was greater than 300 µM and the “ABCB1 Expression” value ([1]; MRC-5 (co-culture with NCI-H460)) was “no change”. The “ABCB1 Expression” value ([1]; MRC-5 (co-culture with NCI-H460/R)) was “no change”, the “ABCB1 Expression” value ([1]; MRC-5 monoculture) was “no change” and the “ABCB1 Expression” value [2, 9] was “no change”. For the same compound, the “ABCB1 Expression” value ([2]; NCI-H460 monoculture) was “no change”, the “ABCB1 Expression” value ([3]; NCI-H460/R (co-culture with MRC-5)) was “no change” and the “ABCB1 Expression” value ([3]; NCI-H460/R monoculture) was “no change”. For the same compound, the IC50 [4, 10] was 181 µM, the IC50 [4, 11] was 252 µM and the IC50 [4, 12] was 231 µM. For the same compound, the IC50 [4, 13] was greater than 300 µM, the IC50 [4, 14] was greater than 300 µM and the IC50 ([5]; culture TR58, non-cancer cells (CK8/18-)) was greater than 300 µM. The IC50 ([5]; culture TR64, non-cancer cells (CK8/18-)) was greater than 300 µM, the IC50 ([5]; culture TR65, non-cancer cells (CK8/18-)) was 25.2 µM and the IC50 ([5]; culture TR84, non-cancer cells (CK8/18-)) was greater than 300 µM. The IC50 ([5]; culture TR87, non-cancer cells (CK8/18-)) was greater than 300 µM, the ABCB1 Expression [6, 10] was “no change” and the ABCB1 Expression [6, 11] was “no change”. For the same compound, the ABCB1 Expression [6, 12] was “no change”, the ABCB1 Expression [6, 13] was “increase (An increase in ABCB1, ABCC1, or ABCG2 expression of at least 20% at a minimum of one concentration is shown in the table.)” and the ABCB1 Expression [6, 14] was “increase (An increase in ABCB1, ABCC1, or ABCG2 expression of at least 20% at a minimum of one concentration is shown in the table.)”. For the same compound, the ABCC1 expression [7, 10] was “no change”, the ABCC1 expression [7, 11] was “no change” and the ABCC1 expression [7, 12] was “increase (An increase in ABCB1, ABCC1, or ABCG2 expression of at least 20% at a minimum of one concentration is shown in the table.)”. The ABCC1 expression [7, 13] was “increase (An increase in ABCB1, ABCC1, or ABCG2 expression of at least 20% at a minimum of one concentration is shown in the table.)”, the ABCC1 expression [7, 14] was “increase (An increase in ABCB1, ABCC1, or ABCG2 expression of at least 20% at a minimum of one concentration is shown in the table.)” and the ABCG2 expression [8, 10] was “no change”. The ABCG2 expression [8, 11] was “no change”, the ABCG2 expression [8, 12] was “no change” and the ABCG2 expression [8, 13] was “increase (An increase in ABCB1, ABCC1, or ABCG2 expression of at least 20% at a minimum of one concentration is shown in the table.)”. For the same compound, the ABCG2 expression [8, 14] was “no change”.
